Measurements published in ChEMBL document CHEMBL1158771, “Glaciapyrroles A, B, and C, pyrrolosesquiterpenes from a Streptomyces sp. isolated from an Alaskan marine sediment” (J Nat Prod, 2005).

Columns and labels:
[1] = system: HT-29; assay: Cytotoxicity against human HT-29 cells assessed as reduction of resazurin after 48 hrs by fluorimetry; format: functional, cell-based; conditions: HT-29, 48 h
[2] = system: B16-F10; assay: Cytotoxicity against mouse B16F10 cells assessed as reduction of resazurin after 48 hrs by fluorimetry; format: functional, cell-based; conditions: B16-F10, 48 h

CC(=C/C(=O)c1ccc[nH]1)/C=C/[C@H](O)[C@@]1(C)CC[C@H](C(C)(C)O)O1 [GLYCIAPYRROLE A]
IC50 [1]: 180 µM
IC50 [2]: 180 µM
